Data reported in US5198552A, “Indole derivative having antiviral, interferon-inducing and immunomodulatory effects” (priority 1991, dated 1993).
Where “and” joins values, the source holds several entries; their conditions need not be identical. Equal entries are not always repeated. Entries after “also recorded” stand apart in the source; their conditions may differ. Where two headings read alike, the source gives them in different places.

Key:
[1] = Long-term per os toxicity, dogs; format: in vivo; conditions: per os 25 mg/kg over 6 months
[2] = Localized irritant action in oral administration (hystological tests); format: in vivo
[3] = clinical trials
[4] = system: influenza viruses; assay: Virucidal action on influenza viruses
[5] = system: influenza A/B viruses; format: cell-based
[6] = system: interferon; assay: Interferon induction in mouse blood serum; format: in vivo, mice
[7] = Long-term per os toxicity, guinea pigs; format: in vivo; conditions: per os 100 to 125 mg/kg over 3 months
[8] = Maximum tolerable concentration for chick embryo fibroblasts; format: cell-based; conditions: chicken
[9] = Acute toxicity, single oral administration, mice; conditions: mouse, in vivo
[10] = Long-term per os toxicity, rabbits; format: in vivo; conditions: per os 50 mg/kg during 2 months
[11] = system: peritoneal macrophages; assay: Absorbing capacity of mouse peritoneal macrophages (neutral red); format: in vivo, mice; design: Absorbing Capacity, percent of control: concentration or dose not given beside the values
[12] = system: sarcoma-45; assay: Development of grafted sarcoma-45; format: in vivo, rats; conditions: for Sarcoma growth: 125 mg/kg daily during 5 days, p < 0.05
Text: Control animals were given only a starch solution. The dynamic development of the tumor was monitored by intravital measurements of its mass.

[13] = system: interferon; format: cell-based, hen; conditions: 20 µg/ml
[14] = system: interferon; assay: Interferon induction in human blood serum; format: in vivo
[15] = Prolonged administration to animals; format: in vivo
[16] = system: herpes simplex virus from antigen-type I L2 -strain; assay: Preventive action in generalized mouse herpes; design: species or system mice; conditions: in vivo
[17] = Effect on thermal skin lesion; conditions: in vivo
[18] = Allergizing effect, guinea pigs; format: in vivo; conditions: subcutaneous injections and repeated skin applications
[19] = system: influenza A/B viruses; assay: Medicinal effect on experimental influenzal pneumonia of mice induced by influenza A/B viruses; format: in vivo; conditions: hydrochloride monohydrate
[20] = Long-term per os toxicity, rats; format: in vivo; conditions: per os 100 to 125 mg/kg during 6 months
[21] = Physical properties of the compound (heating, solubility, hygroscopicity, pH of solution); format: physicochemical
Method: The compound according to the invention is a crystalline powder, having a colour from white with tints of green-yellow to light-yellow with green hues; a bitter in taste, odourless. The melting point of the compound is not characteristic.
The solution containing 1 g of the compound in 1450 ml of water at 25° C. has pH of 4.37 (potentiometrically).

[22] = system: influenza A virus (Bethezda) 63 (H2 N2), A (Aichi) (H3 N2); assay: Preventive action in mouse influenzal pneumonia; format: in vivo, mice; conditions: for The decrease of lethality: P <0.01; for Lethality: absolute animal number: dead/total
Method: Its preventive effect was studied on a mouse influenzal pneumonia induced by infecting the animals intranasally with influenza A virus (Bethezda) 63 (H2 N2), A (Aichi) (H3 N2) and on a generalized mouse herpes, induced by intranasal infection of them with herpes simplex virus from antigen-type I L2 -strain.
A single administration of the preparation per os in the dose of 30 mg/kg 24 hours prior to infection prevents the death of 40% of animals suffering from a generalized herpetic infection.

[23] = system: Salmonella typhimurium; assay: Mutagenic activity on Salmonella typhimurium; conditions: 50 to 1000 μm per disk
[24] = system: influenza A/B virus; assay: Clinical trial against influenza A/B virus infection; format: in vivo, human; conditions: hydrochloride monohydrate
Method: The clinical checking of the preparation was performed in comparison to control groups o patients which were taken a symptomatic treatment.

[25] = 1 day after single administration
[26] = 2 day after single administration
[27] = 31.2 mg/kg per os 24 and 6 hours before infecting
[28] = 62.5 mg/kg per os 24 and 6 hours before infecting
[29] = 125 mg/kg per os 24 and 6 hours before infecting
[30] = patients with influenza virus infection

## CCOC(=O)c1c(CSc2ccccc2)n(C)c2cc(Br)c(O)c(CN(C)C)c12.Cl.O [preparation of the invention, ethyl 6-bromo-5-hydroxy-4-dimethylaminomethyl-1-methyl-2-phenylthiomethylindole-3-carboxylate hydrochloride monohydrate]
[1]
  pathological changes: did not cause any pathological changes
[2]
  localized irritant action: no localized irritant action
[3]
  toxicity / tolerability in patients: non-toxic, is well tolerated by patients
[4]
  virucidal action on influenza viruses: No virucidal action
[5]; hydrochloride monohydrate
  inhibition of influenza A/B virus reproduction / chemotherapeutical effect: shows a pronounced chemotherapeutical effect; also recorded: Inhibits the reproduction
[5]; single-stage infection, 5 μm/ml, reducing infectivity titer and suppressing plague-forming activity
  stage at which the virus-inhibiting effect is expressed: early stages of influenza viruses reproduction in cells: adsorption, penetration and probably deproteinization
[6]; mice, repeated administering
  interferon induction on repeated administering: a depressed reactivity state condition occurs in the animals
[6]; per os, 62.5 mg/kg, after 16 h
  Interferon titer: 320-640 U/ml
[6]; per os, 62.5 mg/kg, after 24 h
  Interferon titer: 640 U/ml
[6]; per os, 62.5 mg/kg, after 48 h
  Interferon titer: 160 U/ml
[6]; per os, 62.5 mg/kg, after 72 h
  Interferon titer: 40 U/ml
[6]; per os, 125 mg/kg, after 16 h
  Interferon titer: 640 U/ml
[6]; per os, 125 mg/kg, after 24 h
  Interferon titer: 320-640 U/ml
[6]; per os, 125 mg/kg, after 48 h
  Interferon titer: 640 U/ml
[6]; per os, 125 mg/kg, after 72 h
  Interferon titer: 160 U/ml
[6]; per os, 250 mg/kg, after 16 h
  Interferon titer: 320-540 U/ml
[6]; per os, 250 mg/kg, after 24 h
  Interferon titer: 640-1280 U/ml
[6]; per os, 250 mg/kg, after 48 h
  Interferon titer: 320 U/ml
[6]; per os, 250 mg/kg, after 72 h
  Interferon titer: 160 U/ml
[6]; per os, 250 to 62.5 mg/kg, 16 hours, persisted up to 48 hours
  high interferon titers in mouse blood serum: 640 U/ml
[7]
  pathological changes: did not cause any pathological changes
[8]
  MNTC: 20 µg/mL
[9]
  LD50: 340 mg/kg
[10]
  pathological changes: did not cause any pathological changes
[11]; [25]
  Absorbing Capacity of Peritoneal Macrophages: 27.7 ± 3.5 mg/6 × 10^6 cells
  Absorbing Capacity, percent of control: 125 ± 17%
[11]; [26]
  Absorbing Capacity of Peritoneal Macrophages: 33.6 ± 4.7 mg/6 × 10^6 cells
  Absorbing Capacity, percent of control: 147 ± 20.6%
[11]; 3 day after single administration
  Absorbing Capacity of Peritoneal Macrophages: 37.4 ± 3.7 mg/6 × 10^6 cells
[11]; by 2-3 days after a single administration, p<0.05
  absorbing capacity of macrophages: 164±13%
[11]; in vivo
  stimulation of absorbing capacity of macrophages: stimulates the absorbing capacity of macrophages to a greater extent than administration of levamisole
[11]; mouse, in vivo
  effect on counts of macrophages washed off the peritoneal cavity: no effect on counts of macrophages
[12]; 1 month 10 days after grafting
  Sarcoma growth: 21.0 ± 3.9 cm^3
[12]; 1 month 16 days after grafting
  Sarcoma growth: 38.0 ± 7.5 cm^3
[12]; 1 month after grafting
  Sarcoma growth: 8.2 ± 1.4 cm^3
[12]; 2 months after grafting
  Sarcoma growth: 39.9 ± 9.7 cm^3
[12]; 12 month period of observation, hydrochloride monohydrate
  effect on development of the tumor: inhibition of the development of tumor was found; also recorded: inhibitory effect on the development of a massive tumor
[13]; 8 hours
  Interferon titer: 640-1280 U/ml
[13]; 24 hours
  maximum interferon titer: 2560 U/ml
[13]; by 48 hours
  Interferon titer: 320 U/ml
[14]; 3-times administration (300 mg), all 12
  volunteers with interferon induction: 100%
[14]; 3 times per day (300 mg)
  Interferon titer: 160-320 U/ml
[14]; 3 times per day (300 mg), 12 men
  The number of positive reactions: 12
[14]; 6 times per day during 2 days (600 mg), 12 men
  The number of positive reactions: 12
[14]; during 2 days (600 mg)
  Interferon titer: 40-80 U/ml
[14]; increase in dose and duration of administration
  development of hyporeactivity on increase in dose and duration: development of hyporeactivity in human beings
[14]; single administration (100 mg)
  Interferon titer: 40-80 U/ml
[14]; single administration per day (100 mg), 13 men
  The number of positive reactions: 8
[14]; single per os 100 mg, 8 out of 13
  volunteers with interferon induction: 61.5%
[15]
  alternations in parenchymatous organs: may cause in animals the development of non-specific degenerative alternations in parenchymatous organs
[16]
  prevention of death: 40%
[16]; hydrochloride monohydrate
  Lethality: 60% and 75%
  Lethality: absolute animal number: 12/20 and 15/20
  The decrease of lethality: 40% and 25%
[17]
  effect on a thermal skin lesion: exert a thermoprotective action and reduce a thermal skin lesion
[18]
  allergizing action: did not exert an allergizing action
[19]
  medicinal (chemotherapeutical) effect on influenzal pneumonia: shows a pronounced chemotherapeutical effect; also recorded: Exerts a medicinal effect
[20]
  pathological changes: did not cause any pathological changes
[21]
  hygroscopicity: non-hydroscopic
[21]; 1 g of the compound in 1450 ml of water at 25° C., potentiometrically
  pH of solution: 4.37
[21]; heated for 3 hours at 110° to 120° C.
  behaviour when heated: looses the molecule of H2 O
[21]; water, methanol, ethanol
  solubility in water, methanol, ethanol: poorly soluble
[22]; [27]
  Lethality: 30%
  The decrease of lethality: 40%
  Lethality: absolute animal number: 12/40
[22]; 31.2 mg/kg to 125 mg/kg per os 24 and 6 hours before infecting
  lowering of lethality as compared to control: 40-50%
[22]; [28]
  Lethality: 20%
  The decrease of lethality: 50%
  Lethality: absolute animal number: 8/40
[22]; [29]
  Lethality: 20%
  The decrease of lethality: 50%
  Lethality: absolute animal number: 8/40
[23]
  mutagenic activity: no mutagenic activity
[24]; human, in vivo, po
  therapeutical efficacy against influenza A/B virus infection: has the therapeutical effect on influenza A/B virus infections; also recorded: shortening the febrile period, intoxication and catarrhal conditions as well as by shortening the illness duration
[24]; [30]
  frequency of chronic disease exacerbations: considerably decreases the frequency of chronic disease exacerbations; also recorded: decreased considerably the frequency of chronic disease exacerbations
  postinfluenzal complications: prevents from post-influenzal complications; also recorded: prevented the development of postinfluenzal complications
